Assay results: patent US9179674B2, “Macrocyclic picolinamide compounds with fungicidal activity” (DOW AGROSCIENCES LLC, priority 2013, dated 2015)
Where two headings read alike, the source gives them in different places.

Key:
[1] = tested on: Puccinia triticina; assay: Wheat Brown Rust fungicidal activity (PUCCRT); format: in vivo; details: Puccinia triticina; for pest or weed control at 100 ppm: rate 100 ppm; for pest or weed control at 121.5 g/ha: rate 121.5 g/H
Description: Technical grades of materials were dissolved in acetone, which were then mixed with nine volumes of water containing 110 ppm Triton X-100. The fungicide solutions were applied onto wheat seedlings using an automated booth sprayer to run-off. All sprayed plants were allowed to air dry prior to further handling. All fungicides were evaluated using the aforementioned method for their activity vs. all target diseases. Wheat leaf blotch and brown rust activity were also evaluated using track spray applications, in which case the fungicides were formulated as EC formulations, containing 0.1% Trycol 5941 in the spray solutions. Wheat plants (variety Yuma) were grown from seed in a greenhouse in 50% mineral soil/50% soil-less Metro mix until the first leaf was fully emerged, with 7-10 seedlings per pot. These plants were inoculated with an aqueous spore suspension of Septoria tritici either prior to or after fungicide treatments. After inoculation the plants were kept in 100% relative humidity (one day in a dark dew chamber followed by two to three days in a lighted dew chamber at 20° C.) to permit spores to germinate and infect the leaf. The plants were then transferred to a greenhouse set at 20° C. for disease to develop. When disease symptoms were fully expressed on the 1st leaves of untreated plants, infection levels were assessed on a scale of 0 to 100 percent disease severity. Percent disease control was calculated using the ratio of disease severity on treated plants relative to untreated plants. Evaluation of Fungicidal Activity: Wheat Brown Rust (Puccinia triticina; Synonym: Puccinia recondite f sp. tritici; Bayer code PUCCRT) Wheat plants (variety Yuma) were grown from seed in a greenhouse in 50% mineral soil/50% soil-less Metro mix until the first leaf was fully emerged, with 7-10 seedlings per pot. These plants were inoculated with an aqueous spore suspension of Puccinia triticina either prior to or after fungicide treatments. After inoculation the plants were kept in a dark dew room at 22° C. with 100% relative humidity overnight to permit spores to germinate and infect the leaf. The plants were then transferred to a greenhouse set at 24° C. for disease to develop. Fungicide formulation, application and disease assessment followed the procedures as described in the Example A.

[2] = tested on: Mycosphaerella graminicola; Anamorph: Septoria tritici; assay: Leaf Blotch of Wheat fungicidal activity (SEPTTR); format: in vivo; details: Zymoseptoria tritici; for pest or weed control at 100 ppm: rate 100 ppm; for pest or weed control at 121.5 g/ha: rate 121.5 g/H
Description: Evaluation of Fungicidal Activity: Leaf Blotch of Wheat (Mycosphaerella graminicola; Anamorph: Septoria tritici; Bayer code […]) Technical grades of materials were dissolved in acetone, which were then mixed with nine volumes of water containing 110 ppm Triton X-100. The fungicide solutions were applied onto wheat seedlings using an automated booth sprayer to run-off. All sprayed plants were allowed to air dry prior to further handling. All fungicides were evaluated using the aforementioned method for their activity vs. all target diseases. Wheat leaf blotch and brown rust activity were also evaluated using track spray applications, in which case the fungicides were formulated as EC formulations, containing 0.1% Trycol 5941 in the spray solutions. Wheat plants (variety Yuma) were grown from seed in a greenhouse in 50% mineral soil/50% soil-less Metro mix until the first leaf was fully emerged, with 7-10 seedlings per pot. These plants were inoculated with an aqueous spore suspension of Septoria tritici either prior to or after fungicide treatments. After inoculation the plants were kept in 100% relative humidity (one day in a dark dew chamber followed by two to three days in a lighted dew chamber at 20° C.) to permit spores to germinate and infect the leaf. The plants were then transferred to a greenhouse set at 20° C. for disease to develop. When disease symptoms were fully expressed on the 1st leaves of untreated plants, infection levels were assessed on a scale of 0 to 100 percent disease severity. Percent disease control was calculated using the ratio of disease severity on treated plants relative to untreated plants.

[3] = 24 h, 1 Day Protectant, read-out: Disease control PUCCRT 1DP
[4] = 72 h, 3 Day Curative, read-out: Disease control PUCCRT 3DC
[5] = 24 h, 1 Day Protectant, read-out: Disease control SEPTTR 1DP
[6] = 72 h, 3 Day Curative, read-out: Disease control SEPTTR 3DC

SMILES | pest or weed control at 100 ppm [1, 3] | pest or weed control at 100 ppm [1, 4] | pest or weed control at 100 ppm [2, 5] | pest or weed control at 100 ppm [2, 6] | pest or weed control at 121.5 g/ha [1, 3] | pest or weed control at 121.5 g/ha [1, 4] | pest or weed control at 121.5 g/ha [2, 5] | pest or weed control at 121.5 g/ha [2, 6]
COc1ccnc(C(=O)N[C@H]2COC[C@H](Cc3ccc(C)cc3)[C@@H](OC3CCCC3)[C@H](C)OC2=O)c1OC(C)=O [Compound F64] | 80 to 100% | 80 to 100% | 80 to 100% | 80 to 100% | – | – | – | –
COc1ccnc(C(=O)N[C@H]2COC[C@H](Cc3ccc(C)cc3)[C@@H](OCC(C)C)[C@H](C)OC2=O)c1O [Compound F48, 3-hydroxy-N-((3S,7S,8R,9S)-8-isobutoxy-9-methyl-7-(4-methylbenzyl)-2-oxo-1,5-dioxonan-3-yl)-4-methoxypicolinamide] | 80 to 100% | 80 to 100% | 80 to 100% | 0 to 80% | – | – | – | –
COc1ccnc(C(=O)N[C@H]2COC[C@H](CCC(C)C)[C@@H](OC(=O)C3CC3)[C@H](C)OC2=O)c1O [Compound F36] | 80 to 100% | 0 to 80% | 80 to 100% | 80 to 100% | – | – | – | –
COc1ccnc(C(=O)N[C@H]2COC[C@H](Cc3ccc(F)cc3)[C@@H](OC3CCCC3)[C@H](C)OC2=O)c1O [Compound F18] | 80 to 100% | 80 to 100% | 80 to 100% | 0 to 80% | – | – | – | –
COc1ccnc(C(=O)N[C@H]2COC[C@H](Cc3cc(F)c(F)c(F)c3)[C@@H](OCC(C)C)[C@H](C)OC2=O)c1OC(C)=O [Compound F72] | 80 to 100% | 80 to 100% | 80 to 100% | 80 to 100% | 80 to 100% | 80 to 100% | 80 to 100% | 80 to 100%
COc1ccnc(C(=O)N[C@H]2COC[C@H](CCc3ccccc3)[C@@H](Oc3ccc(C)cc3)[C@H](C)OC2=O)c1OC(C)=O [Compound F58] | 80 to 100% | 80 to 100% | 80 to 100% | 80 to 100% | 80 to 100% | 0 to 80% | 80 to 100% | 80 to 100%
CCCCCO[C@@H]1[C@@H](CCc2ccccc2)COC[C@H](NC(=O)c2nccc(OC)c2OC(C)=O)C(=O)O[C@H]1C [Compound F55] | 80 to 100% | 80 to 100% | 80 to 100% | 80 to 100% | – | – | – | –
COc1ccnc(C(=O)N[C@H]2COC[C@H](Cc3ccc(F)cc3)[C@@H](OCCCC(F)(F)F)[C@H](C)OC2=O)c1O [Compound F17] | 80 to 100% | 0 to 80% | 80 to 100% | 80 to 100% | – | – | – | –
COc1ccnc(C(=O)N[C@H]2COC[C@H](Cc3ccc(C(F)(F)F)cc3)[C@@H](OC(=O)C(C)C)[C@H](C)OC2=O)c1OCOC(C)=O [Compound F102] | 80 to 100% | 80 to 100% | 80 to 100% | 80 to 100% | – | – | – | –
COc1ccnc(C(=O)N[C@H]2COC[C@H](Cc3cc(F)c(F)c(F)c3)[C@@H](OCC(C)C)[C@H](C)OC2=O)c1O [Compound F40] | 0 to 80% | – | 80 to 100% | 80 to 100% | – | – | – | –
CCCCCO[C@@H]1[C@@H](Cc2ccc(C(F)(F)F)cc2)COC[C@H](NC(=O)c2nccc(OC)c2O)C(=O)O[C@H]1C [Compound F31] | 0 to 80% | – | 80 to 100% | 0 to 80% | – | – | – | –
